Test results as given in PubChem BioAssay AID192 (DTP/NCI, 2004).
Where “and” joins values, the source holds several entries; their conditions need not be identical. Equal entries are not always repeated. Toxic doses and inconclusive results are not listed. How the source made its calls: active means survival T/C of 150% or more; inactive means T/C below 125% in these data.

Tested on: BDF1 mice, B16 melanoma ip, median survival T/C
Experiment: NCI In Vivo Anticancer Drug Screen. Data for tumor model B16 Melanoma (intraperitoneal) in B6D2F1 (BDF1) mice
Settings: endpoint: median survival time, higher = longer survival
Method in brief: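 Tumor-bearing mice received test compound or vehicle. Survival or tumor size was then measured in both groups. The treated-group figure was divided by the control-group figure.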

[1] = dose: 50.0 mg/kg/injection, schedule: Q01DX009 (ip), vehicle: saline
[2] = dose: 100.0 mg/kg/injection, schedule: Q01DX009 (ip), vehicle: saline
[3] = dose: 12.5 mg/kg/injection, schedule: Q01DX009 (ip), vehicle: saline with Tween-80
[4] = dose: 25.0 mg/kg/injection, schedule: Q01DX009 (ip), vehicle: saline with Tween-80
[5] = dose: 50.0 mg/kg/injection, schedule: Q01DX009 (ip), vehicle: saline with Tween-80
[6] = dose: 6.25 mg/kg/injection, schedule: Q01DX009 (ip), vehicle: saline
[7] = dose: 12.5 mg/kg/injection, schedule: Q01DX009 (ip), vehicle: saline
[8] = dose: 3.13 mg/kg/injection, schedule: Q01DX009 (ip), vehicle: saline with Tween-80
[9] = dose: 6.25 mg/kg/injection, schedule: Q01DX009 (ip), vehicle: saline with Tween-80
[10] = dose: 100.0 mg/kg/injection, schedule: Q01DX009 (ip), vehicle: saline with Tween-80

Measured: T/C

COP(=O)(OC)OCc1cnc(SC)nc1N
inactive: [1] 121 % of control | [2] 100 % of control

CCc1cc(O)cc(C)c1Cl
inactive: [3] 95 % of control | [4] 110 % of control | [5] 99 % of control and 106 % of control

COc1cccc(/C=N\N=C\c2cccc(OC)c2OC)c1OC
inactive: [6] 95 % of control | [7] 97 % of control

COc1cc(C(=O)NCCS(=O)(=O)O)cc(OC)c1OC
inactive: [2] 97 % of control | dose: 200.0 mg/kg/injection, schedule: Q01DX009 (ip), vehicle: saline 111 % of control | dose: 400.0 mg/kg/injection, schedule: Q01DX009 (ip), vehicle: saline 103 % of control

CCN=NNc1ccc(C)cc1
inactive: [8] 95 % of control | [9] 91 % of control | dose: 6.25 mg/kg/injection, schedule: Q04DX003 (ip), vehicle: saline with Tween-80 94 % of control | [3] 97 % of control | dose: 12.5 mg/kg/injection, schedule: Q04DX003 (ip), vehicle: saline with Tween-80 101 % of control | [4] 91 % of control | dose: 25.0 mg/kg/injection, schedule: Q04DX003 (ip), vehicle: saline with Tween-80 103 % of control

Cc1ccc(C(=O)CCCCl)c(C)c1
inactive: [5] 100 % of control | [10] 101 % of control | dose: 200.0 mg/kg/injection, schedule: Q01DX009 (ip), vehicle: saline with Tween-80 108 % of control

CC[C@@H]1O[C@@H]([C@@H]2CC[C@](O)([C@]3(C)CC[C@@H]([C@@H](C)[C@@]4(O)CC[C@H](C)[C@@H](C[C@@]5(O)O[C@@H]([C@@H](C)[C@H](O)C[C@H]6CC[C@H](C)[C@@H]([C@@H](C)C(=O)O)O6)CC[C@@H]5C)O4)O3)O2)CC[C@@]1(C)O
inactive: dose: 0.12 mg/kg/injection, schedule: Q01DX009 (ip), vehicle: saline 91 % of control | dose: 0.25 mg/kg/injection, schedule: Q01DX009 (ip), vehicle: saline 89 % of control | dose: 0.5 mg/kg/injection, schedule: Q01DX009 (ip), vehicle: saline 96 % of control

NCCN.[Ni+2].[O-]c1ccccc1[O-].[O-]c1ccccc1[O-]
inactive: dose: 1.56 mg/kg/injection, schedule: Q01DX009 (ip), vehicle: saline with Tween-80 100 % of control | [8] 97 % of control | [9] 87 % of control | [3] 87 % of control

Oc1c(Br)cc(Br)cc1/C=N/N=C/c1cc(Br)cc(Br)c1O
inactive: dose: 100.0 mg/kg/injection, schedule: Q01DX009 (ip), vehicle: Klucel (hydroxypropylcellulose) (HPC) 90 % of control | dose: 200.0 mg/kg/injection, schedule: Q01DX009 (ip), vehicle: Klucel (hydroxypropylcellulose) (HPC) 87 % of control

FC1(F)SC2C3CC(C4CCC=C43)C2C1(F)F (stereo not given)
inactive: dose: 0.39 mg/kg/injection, schedule: Q01DX009 (ip), vehicle: Klucel (hydroxypropylcellulose) (HPC) 89 % of control | dose: 0.78 mg/kg/injection, schedule: Q01DX009 (ip), vehicle: Klucel (hydroxypropylcellulose) (HPC) 103 % of control

COC(=O)c1cccc(C)c1O
inactive: [5] 100 % of control | [10] 112 % of control

COC(=O)C1Oc2ccc(Cl)cc2Cc2cc(Cl)ccc2O1
inactive: dose: 2.5 mg/kg/injection, schedule: Q01DX009 (ip), vehicle: Klucel (hydroxypropylcellulose) (HPC) 91 % of control | dose: 5.0 mg/kg/injection, schedule: Q01DX009 (ip), vehicle: Klucel (hydroxypropylcellulose) (HPC) 99 % of control | dose: 10.0 mg/kg/injection, schedule: Q01DX009 (ip), vehicle: Klucel (hydroxypropylcellulose) (HPC) 93 % of control and 99 % of control

CCC[CH2][Sn-]([CH2]CCC)([CH2]CCC)[O]c1cc(Cl)c(Cl)cc1Cl
inactive: dose: 0.25 mg/kg/injection, schedule: Q01DX009 (ip), vehicle: Klucel (hydroxypropylcellulose) (HPC) 95 % of control | dose: 0.5 mg/kg/injection, schedule: Q01DX009 (ip), vehicle: Klucel (hydroxypropylcellulose) (HPC) 94 % of control | dose: 1.0 mg/kg/injection, schedule: Q01DX009 (ip), vehicle: Klucel (hydroxypropylcellulose) (HPC) 96 % of control

O=C/C=C/c1ccc([N+](=O)[O-])cc1
inactive: [4] 100 % of control

O=C(NCCCN1CCN(CCCNC(=O)c2cccnc2)CC1)c1cccnc1
inactive: [6] 107 % of control | [7] 107 % of control | dose: 25.0 mg/kg/injection, schedule: Q01DX009 (ip), vehicle: saline 112 % of control | [1] 104 % of control | [2] 95 % of control
